Measurements taken from paper PMC10485906, “Development of a Dihydroquinoline–Pyrazoline GluN2C/2D-Selective Negative Allosteric Modulator of the N-Methyl-D-aspartate Receptor” (ACS Chemical Neuroscience, 2023).
Read-outs that look alike come from different tables or passages of the source.

How the values were obtained:
GluN1/GluN2A [1] = target: T1, GluN1/GluN2A (Rattus norvegicus, UniProt Q00959); test: Two-electrode voltage-clamp recordings, Xenopus laevis oocytes, GluN1/GluN2A; assay type: cell-based; conditions: tested at 3 μM; 100 μM glutamate, 30 μM glycine; mean ± SEM
T1 construct: expressed in transfected cells; host or cells: Xenopus laevis oocytes (cRNA injection)
Method: (§1) All target compounds were evaluated for NMDAR antagonism using two-electrode voltage-clamp recordings from Xenopus laevis oocytes coexpressing recombinant GluN1 and GluN2A-D subunits (Table 1).[32],[42],[33] All analogues were assessed as either a racemic (2b, 2e–2r) or diastereomeric (2d) mixture to simplify purification and streamline in vitro analysis. […] Moreover, as illustrated by the significant loss of NMDAR activity observed with nitrile 2e, the DQP allosteric site necessitated an H-bond donor/acceptor relationship at the carboxylate position. […] The loss of NMDAR activity observed with the trifluoro analogue 2j (Table S1) reinforced the necessity for an H-bond donor/acceptor relationship to maintain allosteric binding and established that fluorine substitution alone is ineffective. […] A single methyl substitution of the amide in compound 2q improved selectivity against GluN2A and had similar potency as 2a, whereas dual methyl substitution reduced potency (2r). We expect that this is likely due to the ability of the […] of the amide to accept hydrogen bonds while the amide can readily donate a proton.
(§2) Unfertilized Xenopus laevis oocytes were obtained from Ecocyte (Austin, TX), or ovaries were purchased from Xenopus 1 (Dexter, MI) and oocytes prepared as previously described.[42],[47] Two-electrode voltage-clamp recordings were performed on oocytes expressing recombinant rat GluN1/GluN2A, GluN1/GluN2B, GluN1/GluN2C, or GluN1/GluN2D. cDNAs for rat GluN1-1a (referred to as GluN1; NCBI Reference Sequence NM_017010.2), GluN2A (NM_012573.4), GluN2B (NM_012574.1), GluN2C (NM_012575.3), and GluN2D (NM_022797.2) were provided by Dr. S. Heinemann from the Salk Institute, Dr. S. Nakanishi from Kyoto University, and Dr. P. Seeburg from the University of Heidelberg. Oocyte isolation, cRNA synthesis, and cRNA injections were performed as previously described.[32],[33],[47] Briefly, Xenopus laevis oocytes were injected with 5–10 ng of cRNA in RNase-free water with the GluN1:GluN2 ratio ranging from 1:1 to 1:5. Oocytes were incubated at 15–19 °C in Barth’s solution consisting of (in mM) 88 NaCl, 1 KCl, 2.4 NaHCO3, 10 HEPES, 0.82 MgSO4, 0.33 Ca(NO3)2, and 0.41 CaCl2 supplemented with 100 μg/mL gentamycin, 40 μg/mL streptomycin, and 50 μg/mL penicillin. Recordings were performed 2–4 days after injection with extracellular recording solution containing (in mM) 90 NaCl, 1 KCl, 10 HEPES, 0.5 BaCl2, and 0.01 EDTA at pH 7.4 adjusted with NaOH. To prevent a gradual increase in current response over the course of the experiment, some oocytes expressing GluN1/GluN2A were injected with 20–50 nL of 2–50 mM K-BAPTA. Concentration–response curves for test compounds were generated by applying a maximally effective concentration of glutamate (100 μM) and glycine (30 μM), followed by glutamate and glycine with variable concentrations of test compounds up to 30 μM. The test compounds were prepared as 20 mM stock solutions in DMSO and diluted to the final concentration in recording solution. The DMSO content was 0.05–0.5% (v/v). […] Methods for off-target analysis are given in the Supporting Information.
(§3) Confidence intervals were determined for the log(IC50). The time course of relaxation during inhibitor application or deactivation following rapid removal of NMDA or glutamate was fitted by the equation [drawing 5] 2

GluN1/GluN2B [2] = target: T2, GluN1/GluN2B (Rattus norvegicus, UniProt Q00960); test: Two-electrode voltage-clamp recordings, Xenopus laevis oocytes, GluN1/GluN2B; assay type: cell-based; conditions: tested at 3 μM; 100 μM glutamate, 30 μM glycine; mean ± SEM
T2 construct: GluN2B (NM_012574.1), GluN2C (NM_012575.3), and GluN2D (NM_022797.2) were provided by; expressed in transfected cells; host or cells: Xenopus laevis oocytes (cRNA injection)
Method: as §1, §2, §3

GluN1/GluN2C [3] = target: GluN1/GluN2C (Rattus norvegicus, UniProt P35439+Q00961); test: Two-electrode voltage-clamp recordings, Xenopus laevis oocytes, GluN1/GluN2C; assay type: cell-based; parameters: GluN2B (NM_012574.1), GluN2C (NM_012575.3), and GluN2D (NM_022797.2) were provided by; expressed in transfected cells; host or cells: Xenopus laevis oocytes (cRNA injection); conditions: 100 μM glutamate, 30 μM glycine; for IC50: read-out: IC50 GluN2C [95% CI]; for remaining activity at 30 µM: 30 μM test compound, mean ± SEM, read-out: I 30 μM / I control GluN2C
Method: as §1, §2, §3

GluN1/GluN2C [4] = target: GluN1/GluN2C (Rattus norvegicus, UniProt Q00961); test: as above; assay type: cell-based; parameters: GluN2B (NM_012574.1), GluN2C (NM_012575.3), and GluN2D (NM_022797.2) were provided by; expressed in transfected cells; host or cells: Xenopus laevis oocytes (cRNA injection); conditions: 100 μM glutamate, 30 μM glycine, mean ± SEM
Method: as §1, §2, §3

GluN1/GluN2D [5] = target: GluN1/GluN2D (Rattus norvegicus, UniProt P35439+Q62645); test: Two-electrode voltage-clamp recordings, Xenopus laevis oocytes, GluN1/GluN2D; assay type: cell-based; parameters: GluN2B (NM_012574.1), GluN2C (NM_012575.3), and GluN2D (NM_022797.2) were provided by; expressed in transfected cells; host or cells: Xenopus laevis oocytes (cRNA injection); conditions: 100 μM glutamate, 30 μM glycine; for IC50: read-out: IC50 GluN2D [95% CI]; for remaining activity at 30 µM: 30 μM test compound, mean ± SEM, read-out: I 30 μM / I control GluN2D
Sequence of GluN1/GluN2D (Rattus norvegicus, UniProt P35439+Q62645) (Q62645 28-1323, other chains not shown): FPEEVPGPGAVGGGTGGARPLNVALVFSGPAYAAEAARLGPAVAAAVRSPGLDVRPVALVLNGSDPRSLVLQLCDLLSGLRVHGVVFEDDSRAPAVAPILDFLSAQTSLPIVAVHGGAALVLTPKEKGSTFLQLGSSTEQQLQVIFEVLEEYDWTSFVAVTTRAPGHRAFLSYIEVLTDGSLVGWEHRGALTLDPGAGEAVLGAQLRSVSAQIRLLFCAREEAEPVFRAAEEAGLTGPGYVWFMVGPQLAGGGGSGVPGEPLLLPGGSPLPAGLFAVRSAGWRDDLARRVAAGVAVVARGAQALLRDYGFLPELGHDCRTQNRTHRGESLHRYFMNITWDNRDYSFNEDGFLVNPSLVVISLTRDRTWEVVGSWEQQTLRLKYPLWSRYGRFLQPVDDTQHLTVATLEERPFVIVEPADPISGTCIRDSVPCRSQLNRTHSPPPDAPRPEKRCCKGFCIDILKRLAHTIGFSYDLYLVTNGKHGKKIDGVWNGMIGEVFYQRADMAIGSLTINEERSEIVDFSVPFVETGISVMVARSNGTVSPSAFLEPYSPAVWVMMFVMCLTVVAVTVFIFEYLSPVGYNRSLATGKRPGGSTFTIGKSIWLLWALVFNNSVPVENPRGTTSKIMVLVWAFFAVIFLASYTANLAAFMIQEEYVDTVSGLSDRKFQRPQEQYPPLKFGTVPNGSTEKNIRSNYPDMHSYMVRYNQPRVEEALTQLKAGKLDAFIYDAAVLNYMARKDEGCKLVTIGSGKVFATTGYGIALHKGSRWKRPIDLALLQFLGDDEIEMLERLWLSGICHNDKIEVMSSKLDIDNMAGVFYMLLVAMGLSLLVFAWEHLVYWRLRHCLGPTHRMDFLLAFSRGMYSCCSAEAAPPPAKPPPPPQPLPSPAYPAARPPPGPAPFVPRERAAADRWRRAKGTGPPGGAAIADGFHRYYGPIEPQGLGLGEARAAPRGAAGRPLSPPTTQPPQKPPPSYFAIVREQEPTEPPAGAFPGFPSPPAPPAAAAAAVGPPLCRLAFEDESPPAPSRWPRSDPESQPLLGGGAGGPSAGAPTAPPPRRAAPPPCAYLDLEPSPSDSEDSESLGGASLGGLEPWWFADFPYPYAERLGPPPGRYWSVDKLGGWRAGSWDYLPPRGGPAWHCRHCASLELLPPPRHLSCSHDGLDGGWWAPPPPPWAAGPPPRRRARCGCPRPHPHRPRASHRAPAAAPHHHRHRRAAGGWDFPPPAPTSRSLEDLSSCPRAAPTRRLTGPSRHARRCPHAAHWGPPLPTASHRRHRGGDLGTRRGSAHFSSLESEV
Method: as §1, §2, §3

GluN1/GluN2D [6] = target: GluN1/GluN2D (Rattus norvegicus, UniProt Q62645); test: as above; assay type: cell-based; parameters: GluN2B (NM_012574.1), GluN2C (NM_012575.3), and GluN2D (NM_022797.2) were provided by; expressed in transfected cells; host or cells: Xenopus laevis oocytes (cRNA injection); conditions: for Selectivity 2A IC50 / 2D IC50: GluN2D over GluN2A; for Selectivity 2B IC50 / 2D IC50: GluN2D over GluN2B
Sequence of GluN1/GluN2D (Rattus norvegicus, UniProt Q62645) (Q62645 28-1323, other chains not shown): as above
Method: as §1, §2, §3

[7] = Brain homogenate tissue binding and stability (RED device); assay type: in vitro ADME, mouse
Method: Carbamazepine (Apin Chemicals) served as a positive control for brain tissue binding. Test compounds and the positive control were initially dissolved in DMSO to make 1 mM stock solutions. […] A rapid equilibrium dialysis (RED) device (Thermo Scientific) containing a dialysis membrane with a molecular weight cutoff of 8000 Da was used to assess tissue binding and metabolic stability. […] The test compounds and positive control (200 μL of 5 μM solution) were added to the red chamber of the dialysis insert, while the white chamber was filled with dialysis buffer (350 μL). The RED device was then sealed with an adhesive film and incubated at 37 °C with shaking (300 rpm) for 4 h. For the initial time point (t = 0 min), 50 μL aliquots of test compounds and the positive control were added to 96-deep well plates (0.7 mL per well) and quenched with 400 μL of MeCN. Following dialysis, another 50 μL aliquot of the tested samples was removed from each well (brain homogenate and buffer) and diluted with an equal volume of the opposite matrix to nullify any matrix effects. […] The supernatant (100 μL) was subsequently transferred to 96-deep well plates for LC-MS/MS analysis. Prodrug metabolism and 2i concentrations were determined by fit-for-purpose LC-MS/MS methods on a nine-point calibration curve ranging from 0.12 to 7.5 μM.

GluN1/GluN2A [8] = target: T3, GluN1/GluN2A (Rattus norvegicus, UniProt P35439+Q00959); test: Two-electrode voltage-clamp recordings, Xenopus laevis oocytes, GluN1/GluN2A; assay type: cell-based; conditions: 100 μM glutamate, 30 μM glycine; for remaining activity at 30 µM: 30 μM test compound, mean ± SEM, read-out: I 30 μM / I control GluN2A; for IC50: read-out: IC50 GluN2A [95% CI]
T3 construct: expressed in transfected cells; host or cells: Xenopus laevis oocytes (cRNA injection)
T3 sequence (Q00959 23-1464, other chains not shown): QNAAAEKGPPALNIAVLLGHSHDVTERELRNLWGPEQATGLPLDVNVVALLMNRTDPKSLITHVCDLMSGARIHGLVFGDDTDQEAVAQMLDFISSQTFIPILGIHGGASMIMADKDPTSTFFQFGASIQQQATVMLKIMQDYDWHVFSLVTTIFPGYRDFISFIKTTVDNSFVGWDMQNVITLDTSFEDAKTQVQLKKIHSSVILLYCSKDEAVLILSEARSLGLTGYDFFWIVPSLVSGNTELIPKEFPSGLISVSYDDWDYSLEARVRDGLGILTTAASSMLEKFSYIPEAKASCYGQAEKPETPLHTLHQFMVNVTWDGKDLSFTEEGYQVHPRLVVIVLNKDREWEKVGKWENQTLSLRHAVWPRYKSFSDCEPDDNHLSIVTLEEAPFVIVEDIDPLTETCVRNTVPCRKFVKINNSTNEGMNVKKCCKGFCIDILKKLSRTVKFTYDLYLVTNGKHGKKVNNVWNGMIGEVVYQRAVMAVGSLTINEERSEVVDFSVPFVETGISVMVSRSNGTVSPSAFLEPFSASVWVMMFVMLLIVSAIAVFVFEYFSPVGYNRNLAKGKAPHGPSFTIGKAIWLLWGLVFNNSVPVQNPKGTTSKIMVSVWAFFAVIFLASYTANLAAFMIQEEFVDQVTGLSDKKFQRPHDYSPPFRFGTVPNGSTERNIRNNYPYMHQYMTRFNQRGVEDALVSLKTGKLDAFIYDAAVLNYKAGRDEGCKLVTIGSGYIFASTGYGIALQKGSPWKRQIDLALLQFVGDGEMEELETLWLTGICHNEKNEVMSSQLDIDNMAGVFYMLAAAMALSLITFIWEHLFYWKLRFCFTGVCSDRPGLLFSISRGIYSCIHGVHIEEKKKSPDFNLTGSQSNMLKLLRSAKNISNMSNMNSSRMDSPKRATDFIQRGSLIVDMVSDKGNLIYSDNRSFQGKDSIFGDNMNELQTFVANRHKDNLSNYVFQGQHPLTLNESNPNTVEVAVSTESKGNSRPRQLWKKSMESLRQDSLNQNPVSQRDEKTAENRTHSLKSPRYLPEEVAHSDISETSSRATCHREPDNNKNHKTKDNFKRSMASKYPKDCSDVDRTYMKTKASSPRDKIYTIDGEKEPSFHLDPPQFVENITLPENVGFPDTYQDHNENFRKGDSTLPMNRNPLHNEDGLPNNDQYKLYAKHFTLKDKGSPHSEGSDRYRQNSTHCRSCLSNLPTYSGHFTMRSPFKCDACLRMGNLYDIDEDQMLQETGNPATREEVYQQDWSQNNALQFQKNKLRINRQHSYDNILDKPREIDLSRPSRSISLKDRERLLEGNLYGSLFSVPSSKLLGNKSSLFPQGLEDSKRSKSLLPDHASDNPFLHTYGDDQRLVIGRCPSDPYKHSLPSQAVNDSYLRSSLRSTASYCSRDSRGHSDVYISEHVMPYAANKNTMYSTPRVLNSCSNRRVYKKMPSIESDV
Method: as §1, §2, §3

GluN1/GluN2B [9] = target: T4, GluN1/GluN2B (Rattus norvegicus, UniProt P35439+Q00960); test: Two-electrode voltage-clamp recordings, Xenopus laevis oocytes, GluN1/GluN2B; assay type: cell-based; conditions: 100 μM glutamate, 30 μM glycine; for remaining activity at 30 µM: 30 μM test compound, mean ± SEM, read-out: I 30 μM / I control GluN2B; for IC50: read-out: IC50 GluN2B [95% CI]
T4 construct: GluN2B (NM_012574.1), GluN2C (NM_012575.3), and GluN2D (NM_022797.2) were provided by; expressed in transfected cells; host or cells: Xenopus laevis oocytes (cRNA injection)
T4 sequence (Q00960 27-1482, other chains not shown): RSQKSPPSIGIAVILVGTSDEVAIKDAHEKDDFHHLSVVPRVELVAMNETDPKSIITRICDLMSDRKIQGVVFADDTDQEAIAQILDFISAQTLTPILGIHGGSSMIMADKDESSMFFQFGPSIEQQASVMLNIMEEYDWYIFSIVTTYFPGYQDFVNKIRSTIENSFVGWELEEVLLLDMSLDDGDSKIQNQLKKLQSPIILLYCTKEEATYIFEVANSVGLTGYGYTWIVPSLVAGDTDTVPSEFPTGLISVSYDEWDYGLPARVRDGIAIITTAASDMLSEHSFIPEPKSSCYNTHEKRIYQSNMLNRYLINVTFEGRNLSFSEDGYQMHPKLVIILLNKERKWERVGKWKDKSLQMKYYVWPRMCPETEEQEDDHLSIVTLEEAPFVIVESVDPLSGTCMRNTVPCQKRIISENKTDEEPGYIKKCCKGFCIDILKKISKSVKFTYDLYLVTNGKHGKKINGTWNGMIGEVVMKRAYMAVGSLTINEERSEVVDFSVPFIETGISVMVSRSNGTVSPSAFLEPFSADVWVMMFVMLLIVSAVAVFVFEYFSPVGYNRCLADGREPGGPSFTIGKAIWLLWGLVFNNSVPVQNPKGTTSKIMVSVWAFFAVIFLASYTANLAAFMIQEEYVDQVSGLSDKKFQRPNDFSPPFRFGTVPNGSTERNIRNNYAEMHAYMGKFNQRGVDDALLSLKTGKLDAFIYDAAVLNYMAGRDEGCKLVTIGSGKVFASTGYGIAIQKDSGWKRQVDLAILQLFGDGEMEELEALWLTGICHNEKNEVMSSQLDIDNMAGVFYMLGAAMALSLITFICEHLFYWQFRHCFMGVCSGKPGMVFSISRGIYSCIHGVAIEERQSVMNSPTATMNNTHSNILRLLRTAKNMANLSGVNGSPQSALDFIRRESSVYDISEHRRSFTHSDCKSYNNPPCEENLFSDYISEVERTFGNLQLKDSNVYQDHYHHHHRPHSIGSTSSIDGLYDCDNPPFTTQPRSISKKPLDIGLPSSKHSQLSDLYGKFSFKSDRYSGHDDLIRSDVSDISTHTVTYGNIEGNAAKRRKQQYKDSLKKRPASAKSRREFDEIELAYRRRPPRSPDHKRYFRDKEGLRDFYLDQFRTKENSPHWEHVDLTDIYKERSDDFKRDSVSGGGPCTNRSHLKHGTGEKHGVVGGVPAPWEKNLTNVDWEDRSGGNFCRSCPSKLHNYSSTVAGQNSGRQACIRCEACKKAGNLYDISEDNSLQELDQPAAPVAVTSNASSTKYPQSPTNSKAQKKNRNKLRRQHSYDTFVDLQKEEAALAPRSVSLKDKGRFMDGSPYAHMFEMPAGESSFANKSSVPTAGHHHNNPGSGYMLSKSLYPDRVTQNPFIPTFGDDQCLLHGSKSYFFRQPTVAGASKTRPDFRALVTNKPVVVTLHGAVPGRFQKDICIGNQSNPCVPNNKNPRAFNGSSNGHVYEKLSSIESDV
Method: as §1, §2, §3

Structure (SMILES)	IC50 (GluN1/GluN2C [3])	IC50 (GluN1/GluN2D [5])	remaining activity at 30 µM (GluN1/GluN2A [8])	remaining activity at 30 µM (GluN1/GluN2B [9])	remaining activity at 30 µM (GluN1/GluN2C [3])	remaining activity at 30 µM (GluN1/GluN2D [5])	IC50 (GluN1/GluN2A [8])	IC50 (GluN1/GluN2B [9])	Selectivity 2A IC50 / 2D IC50 (GluN1/GluN2D [6])	Selectivity 2B IC50 / 2D IC50 (GluN1/GluN2D [6])	other results
NC(=O)N1c2ccccc2C=Cc2ccccc21 [Carbamazepine, reference compound]											fraction unbound at 4 h, 5 µM ([7]; C57BL/6, mouse, brain homogenate (4 times diluted), pH 7.4, mouse brain tissue binding (free fraction in brain), read-out: % Unbound): 0.135; fraction unbound at 4 h, 5 µM ([7]; C57BL/6, mouse, brain homogenate (4 times diluted), pH 7.4, mouse brain tissue binding, RED, 4 h, read-out: % Bound Mean ± SD (converted)): 0.135; fraction unbound at 4 h, 5 µM ([7]; C57BL/6, mouse, brain homogenate (4 times diluted), pH 7.4, mouse brain tissue binding, RED, 4 h, read-out: % Bound R1 (converted)): 0.131; fraction unbound at 4 h, 5 µM ([7]; C57BL/6, mouse, brain homogenate (4 times diluted), pH 7.4, mouse brain tissue binding, RED, 4 h, read-out: % Bound R2 (converted)): 0.14; fraction unbound at 4 h, 5 µM ([7]; C57BL/6, mouse, brain homogenate (4 times diluted), pH 7.4, mouse brain tissue binding, read-out: fu): 0.135; remaining at 4 h, 5 µM ([7]; C57BL/6, mouse, brain homogenate (4 times diluted), pH 7.4, starting concentration 5 μM, 4 h): 105%; recovery at 4 h, 5 μM ([7]; C57BL/6, pH 7.4, mouse brain tissue binding, RED, 4 h): 91%
O=C(N1N=C(c2c(-c3ccc(Cl)cc3)c3ccccc3[nH]c2=O)CC1c1ccc(Cl)cc1)C(F)(F)F (stereo not shown) [2j]			96 ± 2.1%	86 ± 2.3%	100 ± 2.2%	86 ± 2.8%					
N#CCCC(=O)N1N=C(c2c(-c3ccc(Cl)cc3)c3ccccc3[nH]c2=O)CC1c1ccc(Cl)cc1 (stereo not shown) [2e]	99 µM	28 µM	94 ± 1.4%	82 ± 2.4%	67 ± 2.6%	46 ± 5%					

Continued by falling IC50 (GluN1/GluN2C [3]), values first:

IC50 (GluN1/GluN2C [3])	IC50 (GluN1/GluN2D [5])	remaining activity at 30 µM (GluN1/GluN2A [8])	remaining activity at 30 µM (GluN1/GluN2B [9])	remaining activity at 30 µM (GluN1/GluN2C [3])	remaining activity at 30 µM (GluN1/GluN2D [5])	IC50 (GluN1/GluN2A [8])	IC50 (GluN1/GluN2B [9])	Selectivity 2A IC50 / 2D IC50 (GluN1/GluN2D [6])	Selectivity 2B IC50 / 2D IC50 (GluN1/GluN2D [6])	Structure (SMILES)	other results
2.1 µM	1.1 µM	36 ± 5.2%	48 ± 4%	16 ± 5%	3.1 ± 0.59%	15 µM	21 µM	14 fold	19 fold	N[C@@H](CCC(=O)N1N=C(c2c(-c3ccc(Cl)cc3)c3ccccc3[nH]c2=O)CC1c1ccc(Cl)cc1)C(=O)O (stereo partly shown) [2d]	
0.9 µM	0.64 µM		57 ± 2.6%			25 µM	37 µM	39 fold	58 fold	O=C(O)CCCC(=O)N1N=C(c2c(-c3ccc(Cl)cc3)c3ccccc3[nH]c2=O)CC1c1ccc(Cl)cc1 (stereo not shown) [2b]	I / I control GluN2C (GluN1/GluN2C [4]; tested at 10 μM (footnote b)): 13 ± 1.3 ^b (1,8) %; I / I control GluN2D (GluN1/GluN2D [6]; tested at 10 μM (footnote b), 100 μM glutamate, 30 μM glycine, mean ± SEM): 5.9 ± 1.6 ^b (1,8) %
0.57 µM	0.52 µM	29 ± 4.1%	48 ± 1.9%	2.3 ± 0.5%	2.4 ± 0.56%	22 µM	29 µM	42 fold	56 fold	O=C(CCc1nnn[nH]1)N1N=C(c2c(-c3ccc(Cl)cc3)c3ccccc3[nH]c2=O)CC1c1ccc(Cl)cc1 (stereo not shown) [2h]	
0.51 µM	0.31 µM									O=C(O)CC(F)(F)C(=O)N1N=C(c2c(-c3ccc(Cl)cc3)c3ccccc3[nH]c2=O)C[C@@H]1c1ccc(Cl)cc1 [(R)-(+)-2i]	I3 μM/Icontrol GluN2A (GluN1/GluN2A [1]): 103 ± 2.5 (3, 16) %; I3 μM/Icontrol GluN2B (GluN1/GluN2B [2]): 99 ± 2.4 (3, 12) %; I3 μM/Icontrol GluN2C (GluN1/GluN2C [4]; tested at 3 μM): 52 ± 2.1 (2, 12) %; I3 μM/Icontrol GluN2D (GluN1/GluN2D [6]; tested at 3 μM, 100 μM glutamate, 30 μM glycine, mean ± SEM): 42 ± 3.5 (2, 13) %
